Results: article PMC5839409, “Targeting intracellular B2 receptors using novel cell-penetrating antagonists to arrest growth and induce apoptosis in human triple-negative breast cancer” (Oncotarget, 2018)

What was measured:
[1] = target: T1, B2R endogenously expressed in the human de-endothelized umbilical veins (Homo sapiens, UniProt P30411); settings: antagonist, reduction of BK submaximal contraction; means ± s.e.m.; ref [34]; read-out: Bioassay hUV IC50; cited from earlier work
T1 construct: B2R endogenously expressed in the human de-endothelized umbilical veins (hUV); from tissue; host or cells: human umbilical vein, de-endothelized
T1 sequence (P30411 1-391): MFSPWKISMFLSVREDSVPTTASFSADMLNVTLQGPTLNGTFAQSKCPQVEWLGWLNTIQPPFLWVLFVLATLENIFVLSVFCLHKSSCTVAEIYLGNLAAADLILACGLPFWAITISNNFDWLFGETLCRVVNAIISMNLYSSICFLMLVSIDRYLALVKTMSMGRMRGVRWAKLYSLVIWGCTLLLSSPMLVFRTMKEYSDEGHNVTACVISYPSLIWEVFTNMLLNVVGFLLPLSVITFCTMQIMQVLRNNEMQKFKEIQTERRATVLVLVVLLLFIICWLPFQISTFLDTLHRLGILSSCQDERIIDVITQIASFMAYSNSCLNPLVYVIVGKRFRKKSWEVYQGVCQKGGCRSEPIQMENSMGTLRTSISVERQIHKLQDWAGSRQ

human B2R = target: T2, human B2R (Homo sapiens, UniProt P30411); settings: living adherent HEK-293T cells transiently transfected with hB2R; means ± s.e.m.; ref [34]; read-out: Binding hB2R-HEK293T IC50; cited from earlier work
T2 construct: expressed in transfected cells; host or cells: HEK-293T
T2 sequence (P30411 1-391): T1 sequence (P30411 1-391)

MDA-MB-231 cells [2] = test: Annexin V/PI apoptosis and beta-galactosidase senescence assays; format: cell-based, human; settings: Annexin V and active caspase-3 positivity 24h; β-galactosidase 72h
Experimental: The effect of B2RAs on cellular senescence was assessed using the Senescence β-Galactosidase Staining Kit (Cell Signaling). MDA-MB-231 cells were plated at 500 000 cells/well in 6-well plates, and serum-starved right before the beginning of treatments. Cells were treated with and without the B2RAs at the indicated concentrations for 72 h. At the end of treatment, surviving cells were fixed with 2% formaldehyde, 0.2% glutaraldehyde for 15 min at room temperature. Fixed cells were then washed and stained with fresh senescence-associated β-galactosidase stain solution (sodium phosphate buffer, pH 6.0, containing 1mg of X-gal (5-bromo-4-chloro-3-indolyl-β-d-galactopyranoside)/ml 40 mM citric acid, 5 mM potassium ferrocyanide, 5 mM potassium ferricyanide, 150 mM NaCl, 2 mM MgCl2) at 37°C. Staining was detected by light microscopy. As a positive control for senescence, we serum starved porcine cerebral microvascular endothelial cells (pCMVEC) (kindly provided by S Chemtob) for 48 h.
MDA-MB-231 and COS-1 cells were plated at 500,000/well in 6-well plates containing medium (10% FBS/DMEM), and allowed to adhere for about 18 h. On the next day, cells were serum-starved and then treated with and without the B2RAs at the indicated concentrations for 24 h. To assess induction of apoptosis due to treatment, we used the Annexin-V-FLUOS Staining kit (Roche) according to manufacturer’s specifications. Briefly, at the end of treatments, cells were harvested, rinsed and incubated in 100 µl of Annexin-V-FLUOS labeling solution (containing 2 µl of Annexin-V-Fluos reagent and 1 µl of PI (15 µg/ml)) for 15 min at room temperature. Cells were analyzed on a FACSCanto II flow cytometer (BD Biosciences). Early stage apoptosis was measured using annexin V-Fluos (RocheMolecular Biochemicals) in conjunction with PI (Sigma) to distinguish among early apoptosis and late apoptosis/necrosis. Bar diagram showing the distribution of early, late/necrotic cell populations.

MDA-MB-231 cells [3] = test: Western blot of cell cycle, apoptosis and p38 proteins; format: cell-based, human
Experimental: For western blot analysis, appropriate amount of cell lysates or membrane and nuclear fractions (25–50 µg protein) were denatured, resolved on 9–12% SDS–PAGE and electrotransferred onto PVDF membranes. Blots were blocked using 5% nonfat dry milk and probed using appropriate primary antibodies in blocking buffer overnight at 4°C.

[4] = 24h treatment, whole-cell lysates

CC(=O)Nc1ccc(/C=C/C(=O)NCC(=O)N(C)c2ccc(Cl)c(COc3cccc4ccc(C)nc34)c2Cl)cn1 [FR 173657]
IC50 [1]: 6 ± 0.8 nM | IC50 (human B2R): 37 ± 1.6 nM | induction of apoptosis / senescence (MDA-MB-231 cells [2]): underwent apoptosis, but not senescence | expression of BAD and p27Kip1 (MDA-MB-231 cells [3]; [4]): increased expression | levels of MAPK and cyclin A (MDA-MB-231 cells [3]; [4]): decreased the levels of MAPK and cyclin A | levels of anti-apoptotic protein XIAP (MDA-MB-231 cells [3]; [4]): appeared to reduce the levels | phosphorylation of p38 (MDA-MB-231 cells [3]; over time): significantly increased the phosphorylation
